Legend:
[1] = target: T1, RORγ-LBD (Homo sapiens, UniProt P51449); test: RORγ-Ligand Binding Domain (LBD) TR-FRET Assay; format: biochemical; settings: for EC50: in presence of 2 μM RORγ antagonist ursolic acid, SRC1 coactivator peptide; for TR-FRET Assay Max Response: upper plateau of 4-parameter fit, signal in the absence of ursolic acid or test compound set as 100
T1 construct: made in house; host or cells: SF9 cells, baculovirus expression system; used as diluted lysate
T1 sequence (P51449 269-508 limits assumed): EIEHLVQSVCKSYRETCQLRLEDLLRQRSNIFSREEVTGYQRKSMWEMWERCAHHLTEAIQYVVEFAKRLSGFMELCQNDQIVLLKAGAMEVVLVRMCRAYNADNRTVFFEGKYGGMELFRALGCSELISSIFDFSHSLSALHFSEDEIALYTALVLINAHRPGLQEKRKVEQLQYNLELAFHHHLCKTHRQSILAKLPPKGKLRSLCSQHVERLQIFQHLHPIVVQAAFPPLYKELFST
Protocol: HIS-tagged RORγ-LBD protein was expressed in SF9 cells using a baculovirus expression system. The lysate was diluted in assay buffer (50 mM Tris pH 7.0, 50 mM KCl, 1 mM EDTA, 0.1 mM DTT, 0.01% BSA) to obtain RORγ-LBD final concentration of ˜3 nM in a 384-well assay plate (need to titrate for each batch of protein).
A stock of biotinylated-LXXLL peptide from coactivator SRC1 (Biotin-[…]) was prepared in assay buffer and added to each well (200 nM final concentration). A solution of Europium tagged anti-HIS antibody (0.6 nM final concentration) and APC-conjugated streptavidin (30 nM final concentration) were also added to each well. RORγ antagonist ursolic acid was also included at a final concentration of 2 μM. Compounds were diluted in DMSO and further diluted in assay buffer with a final DMSO concentration at 1%.
The final assay mixture was incubated overnight at 4° C. or 2 hours at room temperature, and the fluorescence signal was measured on an Envision plate reader: (Excitation filter=340 nm; APC emission=665 nm; Europium emission=615 nm; dichroic mirror=D400/D630; delay time=100 μs, integration time=200 μs). 50% Effective concentration (EC50) values for test compounds were calculated from the quotient of the fluorescence signal at 665 nm divided by the fluorescence signal at 615 nm. The quotient of the fluorescence signals in the absence of ursolic acid or test compound is set as 100. Max Response is defined as the upper plateau in the signal as determined by line-fit using a 4-parameter logistic model in PRISM (GraphPad).

[2] = target: T2, Gal4-RORγ-LBD (Homo sapiens, UniProt P51449); test: Gal4-RORγ Luciferase Reporter Assay in HEK-293T Cells; format: cell-based; settings: for EC50: HEK-293 cells, in presence of 2 μM ursolic acid, overnight incubation, read-out: Ga14-RORγ Assay EC50; for Ga14-RORγ Assay Max Response: upper plateau of 4-parameter fit, luciferase signal in the absence of ursolic acid or test compound defined at 100
T2 construct: expressed in transfected cells; pcDNA3.1neo plasmid, co-transfected with pGL4.31 Gal4-luciferase reporter
T2 sequence (P51449 269-508 limits assumed): T1 sequence (P51449 269-508 limits assumed)
Protocol: In the following protocol, HEK-293 cells were transfected with a construct comprising the Gal4 DNA binding domain fused to the ligand binding domain of RORγ (Gal4-RORγ-LBD) in a pcDNA3.1neo plasmid, and also with a reporter construct comprising pGL4.31 Gal4-luciferase (Promega). Control cells were prepared similarly using empty pcDNA3.1neo and pGL4.31 vectors.
Trans-IT reagent (Mirus, 60 μL) at room temperature was added drop wise to OptiMEM (Invitrogen, 1.5 ml). This reagent mixture was mixed by inversion then incubated for 5 to 30 minutes at room temperature. It then was added to a solution of both expression vectors (5 μg each), mixed, and incubated at room temperature for about 20 minutes. HEK-293 cells were harvested from incubation flasks by removing the media, treating with TrypLE Express (Invitrogen), and incubating until the cells detached from the bottom of the flask (approximately 2-5 minutes). 10 Million cells were collected by centrifugation and re-suspended in 10 mL of Dulbecco's Modified Eagle Medium, High Glucose (DMEM, Invitrogen) containing 10% Fetal Bovine Serum and 100 IU each of penicillin and streptomycin. The re-suspended cells and the transfection mixture were added to a T75 flask, mixed and incubated overnight at 37° C. and 5% CO2.
The cells were harvested as described above, counted, and centrifuged to obtain the desired number of cells, then re-suspended in complete growth media at 0.75×10^6 cells/mL. The RORγ antagonist, ursolic acid, was added to the cells at a final concentration of 2 μM. Cells were plated at 20 μL of cell suspension/well (10,000-15,000 cells/well) in white tissue culture treated 384 well plates. Test compounds were dissolved at 10 mM in DMSO then diluted into complete growth medium to 5× the final intended test concentration. These drug stock solutions, 5 μL/well were added to the tissue culture plate. The final DMSO concentration was 0.2%. The plates were briefly centrifuged then incubated overnight at 37° C. and 5% CO2. To conduct the assay, the tissue culture plates were allowed to equilibrate to room temperature and One-Glo luciferase reagent (Promega, 25 μL/well) was added. The plates were briefly centrifuged then incubated at room temperature for 10 minutes. The luciferase intensity was read on an Envision plate reader (Perkin Elmer). RORγ activity was determined relative to controls and plotted as a function of test compound concentration using PRISM (GraphPad) to determine a 50% effective concentration (EC50). The luciferase signal in the absence of ursolic acid or test compound is defined at 100. The Max Response is the upper plateau in the signal as determined by line-fit using a 4-parameter logistic model in PRISM (GraphPad).

SMILES | EC50 [1] | EC50 [2] | TR-FRET Assay Max Response [1] | Ga14-RORγ Assay Max Response [2]
C/C(=C\c1ccc2c(c1)N(S(=O)(=O)c1cccc(C(F)(F)F)c1)C[C@H](CCCc1noc(=O)[nH]1)O2)c1c(F)cccc1Cl | 100 to 5000 nM | 100 to 5000 nM | *** (a value in the range of greater than 150 to 200) | ** (a value in the range of greater than 90 to 150)
C/C(=C\c1ccc2c(c1)N(S(=O)(=O)c1cccc(C(F)(F)F)c1)C[C@H](CCCc1nn[nH]n1)O2)c1c(F)cccc1Cl | 100 to 5000 nM | 100 to 5000 nM | *** (a value in the range of greater than 150 to 200) | ** (a value in the range of greater than 90 to 150)
CCn1cc(S(=O)(=O)N2C[C@H](CCc3n[nH]c(=O)o3)Oc3ccc(/C=C(\C)c4c(F)cccc4Cl)cc32)c(OCCO)n1 | < 100 nM | 100 to 5000 nM | **** (a value greater than 200) | ** (a value in the range of greater than 90 to 150)
CCOc1ncc(Cl)cc1S(=O)(=O)N1C[C@H](CCc2n[nH]c(=O)o2)Oc2ccc(/C=C(\C)c3c(F)cccc3Cl)cc21 | < 100 nM | 100 to 5000 nM | *** (a value in the range of greater than 150 to 200) | ** (a value in the range of greater than 90 to 150)
C/C(=C\c1ccc2c(c1)N(S(=O)(=O)c1cc(Cl)cnc1OCCO)C[C@H](CCc1n[nH]c(=O)o1)O2)c1c(F)cccc1Cl | < 100 nM | 100 to 5000 nM | **** (a value greater than 200) | ** (a value in the range of greater than 90 to 150)
CCn1cc(S(=O)(=O)N2C[C@H](CCc3n[nH]c(=O)o3)Oc3ccc(/C=C/c4c(Cl)cccc4C(F)(F)F)cc32)c(OCCO)n1 | < 100 nM | 100 to 5000 nM | **** (a value greater than 200) | ** (a value in the range of greater than 90 to 150)
CCOc1ncc(C(F)(F)F)cc1S(=O)(=O)N1C[C@H](CCc2n[nH]c(=O)o2)Oc2ccc(/C=C/c3c(Cl)cccc3C(F)(F)F)cc21 | 100 to 5000 nM | 100 to 5000 nM | **** (a value greater than 200) | ** (a value in the range of greater than 90 to 150)
O=c1[nH]nc(CC[C@H]2CN(S(=O)(=O)c3cccc(OC(F)F)c3)c3cc(/C=C/c4c(Cl)cccc4C(F)(F)F)ccc3O2)o1 | < 100 nM | 100 to 5000 nM | **** (a value greater than 200) | ** (a value in the range of greater than 90 to 150)
CCOc1nn(CC)cc1S(=O)(=O)N1C[C@H](CCc2n[nH]c(=O)o2)Oc2ccc(/C=C/c3c(Cl)cccc3C(F)(F)F)cc21 | < 100 nM | 100 to 5000 nM | **** (a value greater than 200) | ** (a value in the range of greater than 90 to 150)
CCOc1ncc(C(F)(F)F)cc1S(=O)(=O)N1C[C@H](CCc2n[nH]c(=O)o2)Oc2ccc(/C=C(\C)c3c(F)cccc3Cl)cc21 | < 100 nM | 100 to 5000 nM | **** (a value greater than 200) | ** (a value in the range of greater than 90 to 150)
C/C(=C\c1ccc2c(c1)N(S(=O)(=O)c1ccc(F)c(OC(F)F)c1)C[C@H](CCc1n[nH]c(=O)o1)O2)c1c(F)cccc1Cl | < 100 nM | 100 to 5000 nM | **** (a value greater than 200) | ** (a value in the range of greater than 90 to 150)

Continued, in another order:

EC50 [1] | EC50 [2] | SMILES | TR-FRET Assay Max Response [1] | Ga14-RORγ Assay Max Response [2]
< 100 nM | 100 to 5000 nM | C/C(=C\c1ccc2c(c1)N(S(=O)(=O)c1cccc(C(F)(F)F)c1)C[C@H](CCc1n[nH]c(=O)o1)O2)c1c(F)cccc1Cl | ** (a value in the range of greater than 90 to 150) | ** (a value in the range of greater than 90 to 150)
< 100 nM | 100 to 5000 nM | C/C(=C\c1ccc2c(c1)N(S(=O)(=O)c1cccc(C(F)(F)F)c1)C[C@H](CCc1nn[nH]n1)O2)c1c(F)cccc1Cl | *** (a value in the range of greater than 150 to 200) | *** (a value in the range of greater than 150 to 200)
< 100 nM | 100 to 5000 nM | C/C(=C\c1ccc2c(c1)N(S(=O)(=O)c1cccc(C(F)(F)F)c1)C[C@H](CCn1ccnc1C)O2)c1c(F)cccc1Cl | *** (a value in the range of greater than 150 to 200) | ** (a value in the range of greater than 90 to 150)
< 100 nM | 100 to 5000 nM | C/C(=C\c1ccc2c(c1)N(S(=O)(=O)c1cccc(C(F)(F)F)c1)C[C@H](CCn1cccn1)O2)c1c(F)cccc1Cl | *** (a value in the range of greater than 150 to 200) | ** (a value in the range of greater than 90 to 150)
< 100 nM | 100 to 5000 nM | C/C(=C\c1ccc2c(c1)N(S(=O)(=O)c1cccc(C(F)(F)F)c1)C[C@H](CCCn1cc(C(=O)O)nn1)O2)c1c(F)cccc1Cl | *** (a value in the range of greater than 150 to 200) | ** (a value in the range of greater than 90 to 150)
< 100 nM | 100 to 5000 nM | C/C(=C\c1ccc2c(c1)N(S(=O)(=O)c1cccc(C(F)(F)F)c1)C[C@H](CCCn1ccnn1)O2)c1c(F)cccc1Cl | *** (a value in the range of greater than 150 to 200) | ** (a value in the range of greater than 90 to 150)
< 100 nM | 100 to 5000 nM | C/C(=C\c1ccc2c(c1)N(S(=O)(=O)c1cccc(C(F)(F)F)c1)C[C@H](CCCn1cccn1)O2)c1c(F)cccc1Cl | *** (a value in the range of greater than 150 to 200) | ** (a value in the range of greater than 90 to 150)
< 100 nM | 100 to 5000 nM | C/C(=C\c1ccc2c(c1)N(S(=O)(=O)c1cccc(C(F)(F)F)c1)[C@H](C)[C@H](Cn1cccn1)C2)c1c(F)cccc1Cl | *** (a value in the range of greater than 150 to 200) | ** (a value in the range of greater than 90 to 150)
< 100 nM | > 10000 nM | C/C(=C\c1ccc2c(c1)N(S(=O)(=O)c1cccc(C(F)(F)F)c1)[C@H](C)[C@H](Cn1ccnn1)C2)c1c(F)cccc1Cl | *** (a value in the range of greater than 150 to 200) | * (a value in the range of 40 to 90)

— patent publication US10421751B2, “Dihydro-2H-benzo[b][1,4]oxazine sulfonamide and related compounds for use as agonists of RORγ and the treatment of disease” (Lycera Corporation, priority 2015, dated 2019)
